Measured values: patent publication US11092596B2, “Material and method to screen proteasome stimulators” (Purdue Research Foundation, priority 2017, dated 2021)
Entries after “also recorded” stand apart in the source; their conditions may differ.

Experiments:
Type in all cases: biochemical
[1] = biological target: trypsin-like activity of the 20S CP (Homo sapiens, UniProt Q99436); experiment: Kinetic assay, T-L FRET reporter hydrolysis by purified 20S CP; settings: 25 μM compound, T-L FRET reporter; basal level set to 100%
Protocol: (§1) Plate preparation for the kinetic assay was performed similarly for all assays. All 96-well plates contained the following in triplicate: reporter background, containing reporter only, and control wells, containing reporter and purified 20S CP. It was determined that each well will contain a total volume of 50 μL. To each well was added 40 μL of the coumarin or FRET reporters (in Tris-HCl, 50 mM, pH 7.7). To the reporter background wells was added 7.5 μL Tris-HCl and 2.5 μL of the solvent in which the compound of interest was dissolved or diluted. Similarly, to the control wells was added 2.5 μL Tris-HCl and 2.5 μL of the solvent in which the compound of interest was dissolved or diluted. To the test wells was added 2.5 μL Tris-HCl and 2.5 μL of the compound of interest at a predetermined concentration. Immediately prior to running the assay on the Synergy 4 Plate Reader, 5 μL purified 20S proteasome (90 nM in Tris-HCl) was added to the control and test wells.
The Synergy 4 Plate Reader was set to heat the plate at 37° C. and read fluorescence every 2 min over a 40 min period. The excitation and emission wavelengths were set according to the reporter. For the FRET reporter, the excitation and emission wavelengths were set to 335 nm and 493 nm, respectively, corresponding to the excitation and emission wavelengths of the Edans fluorophore. […]
Stimulation of the 20S proteasome with SDS was determined using both the coumarin and FRET reporters for the chymotrypsin-like and trypsin-like activities of the 20S CP. […] Immediately prior to running the assay on the Synergy 4 Plate Reader, 5 μL purified 20S proteasome (90 nM in Tris-HCl) was added to the control and test wells. The assay was performed using the Synergy 4 plate reader as described for the general screening kinetic assay procedure. […]
To each well was added 40 μL 20 μM T-L FRET reporter (in Tris-HCl, 50 mM, pH 7.7). […] Immediately prior to running the assay on the Synergy 4 Plate Reader, 5 μL purified 20S proteasome (90 nM in Tris-HCl) was added to the control and test wells.

[2] = biological target: chymotrypsin-like activity of the immunoproteasome core particle (iCP) (Homo sapiens, UniProt P28062); experiment: Kinetic assay, CT-L FRET reporter with immunoproteasome; settings: 25 μM compound
Protocol: Compounds 1, 2, and 3 were screened with the immunoproteasome in triplicate using the CT-L FRET reporter.
To each well was added 40 μL 20 μM CT-L FRET reporter (in Tris-HCl, 50 mM, pH 7.7). To the reporter background wells was added 5 μL Tris-HCl and 5 μL 1:1 Tris-HCl:DMSO. Similarly, to the control wells was added 5 μL 1:1 Tris-HCl:DMSO. To the test wells was added 2.5 μL Tris-HCl and 2.5 μL of a 500 μM solution of the compound of interest in DMSO. […] Immediately prior to running the assay on the Synergy 4 Plate Reader, 5 μL purified 26S proteasome (62.5 μg/mL in Tris-HCl) was added to the control and test wells.
The assay was performed using the Synergy 4 plate reader as described for the general screening kinetic assay procedure.

[3] = biological target: T1, chymotrypsin-like activity of the 20S CP (Homo sapiens, UniProt P28074); experiment: Kinetic assay, CT-L FRET reporter hydrolysis by purified 20S CP; settings: CT-L FRET reporter; for EC50: dose response 0.78125-400 μM, triplicate, read-out: EC50 (concentration of half of the maximum stimulation) for 20S CP stimulation
T1 construct: 5 μL purified 20S proteasome (90 nM in Tris-HCl) was added to the control and test wells
Protocol: as §1
The Synergy 4 Plate Reader was set to heat the plate at 37° C. and read fluorescence every 2 min over a 40 min period. The excitation and emission wavelengths were set according to the reporter. For the FRET reporter, the excitation and emission wavelengths were set to 335 nm and 493 nm, respectively, corresponding to the excitation and emission wavelengths of the Edans fluorophore. For the coumarin reporter, the excitation and emission wavelengths were set to 380 nm and 460 nm, respectively.
(§2) AM-404 was used as a positive control compound to test the dose-response screening capabilities of the CT-L FRET reporter. The following concentrations of AM-404 were tested in triplicate: 50, 25, and 12.5 μM. To each well was added 40 μL 20 μM CT-L FRET (in Tris-HCl, 50 mM, pH 7.7). To the reporter background wells was added 5 μL Tris-HCl and 5 μL 1:1 Tris-HCl:DMSO. Similarly, to the control wells was added 5 μL 1:1 Tris-HCl:DMSO. To the 50 μM AM-404 test wells was added 2.5 μL Tris-HCl and 2.5 μL 1000 μM AM-404 in DMSO. To the 25 μM AM-404 test wells was added 2.5 μL Tris-HCl and 2.5 μL 500 μM AM-404 in DMSO. To the 12.5 μM AM-404 test wells was added 2.5 μL Tris-HCl and 2.5 μL 250 μM AM-404 in DMSO. Immediately prior to running the assay on the Synergy 4 Plate Reader, 5 μL purified 20S proteasome (90 nM in Tris-HCl) was added to the control and test wells. The assay was performed using the Synergy 4 plate reader as described for the general screening kinetic assay procedure.
as §2, with “Fenofibrate was” for “AM-404 was”, “a negative” for “a positive”, “of fenofibrate” for “of AM-404”, “μM fenofibrate” for “μM AM-404”, “procedure. […]” for “procedure.”

Row | 20S CP stimulation over basal level (dose response curve) ([3]; maximum of dose response curve) [%] | Compound | stimulation of the trypsin-like activity of the 20S CP [1] [%] | ability to stimulate the chymotrypsin-like activity of the iCP [2] | EC50 [3] [µM]
1 |  | Cc1c(C)c2c(c(C)c1OC(=O)CCC(=O)O)CC[C@@](C)(CCC[C@H](C)CCC[C@H](C)CCCC(C)C)O2 [Compound 3, vitamin E succinate] | 146 | showed an effect; also recorded: stimulate the chymotrypsin-like activity of the iCP significantly | 7
2 | 100 | C[C@H]1[C@H](C)CC[C@]2(C(=O)O)CC[C@]3(C)C(=CC[C@@H]4[C@@]5(C)CC[C@H](O)C(C)(C)[C@@H]5CC[C@]43C)[C@H]12 [Compound 2, ursolic acid] | 234 | showed an effect; also recorded: stimulate the chymotrypsin-like activity of the iCP significantly | 14
